Here are results for six compounds from patent publication US5776946A, “Peripheral benzodiazepine receptor ligands as antiinflammatory agents” (priority 1995, dated 1998).

The target of assay [1] is T1, peripheral benzodiazepine receptors in brain (Homo sapiens, UniProt P30536).
T1 construct: host or cells: brain (Doble et al., 1987)
As to conditions: read-out: ability to displace bound PK 11195 from peripheral benzodiazepine receptors (Ki); cited from earlier work.

For assay [2], the system named is cultured rat peritoneal macrophages. Briefly: Respiratory burst in cultured rat peritoneal macrophages activated by opsonized zymosan. Type of assay: cell-based. As to conditions: Peritoneal macrophage; for activity at 1000 µM: 10^-3 M. From the text:
Its main function is to protect the body from hostile invaders by generating superoxide radicals, but inappropriate activation can damage host tissue. Oxidative stress is believed to be one of the more harmful concomitants of inflammation. The respiratory burst system can be activated in cultured peritoneal macrophages in multiple ways, including exposure to zymosan particles opsonized by complement proteins (Klegeris and McGeer, 1994).
For methods see Klegeris and McGeer, 1994.

For assay [3], the system named is MRL-lpr mice. Put plainly: CFA-induced disease in MRL-lpr mice, joint histopathology. Type of assay: in vivo, mouse. To be noted: for Severity of Disease Sign Total / Severity of Disease Sign (1) subsynovial inflammation / Severity of Disease Sign (2) synovial hyperplasia / Severity of Disease Sign (3) pannus formation / Severity of Disease Sign (4) bone destruction: day 30, mean ± S.D.; for Severity of Disease Sign (1) subsynovial inflammation / Severity of Disease Sign (2) synovial hyperplasia / Severity of Disease Sign (3) pannus formation / Severity of Disease Sign (4) bone destruction: scale 0-4. The text has this: MRL-lpr mice are a widely studied strain which spontaneously develop a particularly severe autoimmune disorder. Pathologies that are found in a variety of human idiopathic inflammatory and autoimmune diseases are reproduced in these animals. They are therefore considered to be an outstanding model for such individual human diseases, although the pathology represents a combination of several of them. They are regarded as the best animal model for rheumatoid arthritis (Koopman and Gay, 1988) , systemic lupus erythematous (Bartlett et al., 1988)., and Sjogren's syndrome (Hayashi et al., 1994). […] They develop behavioral and neurological deficits (Sakic et al., 1993), as well as evidence of CNS inflammation (Vogelweid et al., 1991) which is seen in isolation in such diseases as Alzheimer type dementia and multiple sclerosis, but is also part of the syndrome in systemic lupus erythematosus and Sjogren's syndrome. The model is considered to be a particularly demanding one for screening antiinflammatory agents because of the severity and comprehensiveness of the disease pathology. […] The lesions include synovial inflammation, synovial cell proliferation, pannus formation, and articular cartilage erosion and bone destruction. Only powerful antiinflammatory agents will inhibit the devastating changes that accompany this genetic disorder. Mice of the MRL-lpr strain spontaneously develop a mild form of the disease at several months of age. The onset can be accelerated by injection of complete Freund's adjuvant (CFA) supplemented to 10 mg/ml with heat-inactivated M. tuberculosis, at 13-14 weeks of age, with 67-82% of animals becoming affected within 1 month (Ratkay et al., 1994; Ratkay et al., 1993).
Daily injections were continued until day 14. The animals were sacrificed at day 30 and joint histopathology assessed. […] The results were compared with those in littermates receiving CFA only (N=7). Following sacrifice, animals were evaluated for subsynovial inflammation, synovial hyperplasia, cartilage destruction and pannus formation, and bone destruction.
^A The histopathological changes were assessed on a scale of 0 (no
change) to 4 (severe change) for the following indices: (1) subsynovial
inflammation; (2) synovial hyperplasia; (3) pannus formation; and (4) bon
destruction. For methods see Ratkay et al., 1994.

Assay [4] has as its target T2, peripheral benzodiazepine receptors, human Alzheimer and control cortical tissue (Homo sapiens, UniProt P30536).
T2 construct: from tissue; host or cells: human cortical brain tissue, Alzheimer and neurologically normal control
Put plainly: Specific high affinity binding of PK 11195 to Alzheimer and control cortical tissue. To be noted: PK 11195 at 3 nM. From the text:
The standard method of Schoemaker et al., 1983 was employed.

Assay [5] deals with T3, peripheral benzodiazepine receptors, mouse peritoneal macrophages (Mus musculus, UniProt P50637).
T3 construct: host or cells: mouse peritoneal macrophages (Zavala and Lenfant, 1987b)
T3 sequence (P50637 whole entry): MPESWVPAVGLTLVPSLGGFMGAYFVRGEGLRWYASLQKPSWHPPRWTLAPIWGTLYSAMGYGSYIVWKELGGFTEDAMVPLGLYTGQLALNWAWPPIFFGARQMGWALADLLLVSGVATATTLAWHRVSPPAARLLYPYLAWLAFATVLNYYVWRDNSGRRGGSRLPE
To be noted: read-out: affinity; cited from earlier work.

Assay [6] addresses T2, peripheral benzodiazepine receptors, human Alzheimer and control cortical tissue. To be noted: McGeer et al., 1988; cited from earlier work.
Setting [7] is: 10^-4 M, after opsonized zymosan, read-out: Respiratory burst, Percent of Control (± S.E.), substance given After OZ.
Where [8] appears, read: 10^-4 M, before opsonized zymosan, read-out: Respiratory burst, Percent of Control (± S.E.), substance given Before OZ.
The mark [9] stands for this setting: 10^-5 M, before opsonized zymosan, read-out: Respiratory burst, Percent of Control (± S.E.), substance given Before OZ.
[10] abbreviates: after opsonized zymosan, read-out: Respiratory burst, Percent of Control (± S.E.), substance given After OZ.
Setting [11] is: before opsonized zymosan, read-out: Respiratory burst, Percent of Control (± S.E.), substance given Before OZ.
Where [12] appears, read: read-out: Respiratory burst, Percent of Control (± S.E.), substance given After OZ.
The mark [13] stands for this setting: read-out: Respiratory burst, Percent of Control (± S.E.), substance given Before OZ.

In general, Ki refers to a dissociation constant, usually derived from enzyme kinetics or from competition with a known ligand. What is called inhibition is the relative decrease from the control value, in per cent.

The structures appear in SMILES notation. Values joined by “and” are separate entries in the source; they are usually repeats but may differ in a detail not shown here. Identical values can stand only once. Like-named read-outs stand apart in the source and are kept apart here.

T2 sequence (P30536 whole entry): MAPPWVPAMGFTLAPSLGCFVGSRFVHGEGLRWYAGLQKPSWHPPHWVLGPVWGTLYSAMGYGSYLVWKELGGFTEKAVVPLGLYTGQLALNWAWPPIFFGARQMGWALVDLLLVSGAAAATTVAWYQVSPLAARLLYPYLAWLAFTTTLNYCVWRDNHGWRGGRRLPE
T1 sequence (P30536 whole entry): as above

For the compound `CCN(CC)C(=O)C(C)Cc1cc(-c2ccccc2)nc2ccccc12` (single isomer, unassigned) [PK-14067, 1-N,N-diethyl-a-methyl-2-phenylquinoline-4-propranamide], in assay [1], the Ki was 44 nM.

Turning to `Nc1ccc(S(=O)(=O)c2ccc(N)cc2)cc1` [Dapsone, dapsone], the activity at 100 µM was determined as 90.3 ± 6.2% in assay [2] (setting [7]) and 73.6 ± 4.6% in assay [2] (setting [8]). Further, the activity at 10 µM in assay [2] (10^-5 M, after opsonized zymosan, read-out: Respiratory burst, Percent of Control (± S.E.), substance given After OZ) was 96.4 ± 1.6%; in assay [2] (setting [9]) it was 94.7 ± 1.3%.

Regarding `COc1ccc2c(c1)c(CC(=O)O)c(C)n2C(=O)c1ccc(Cl)cc1` [Indomethacin, indomethacin], the activity at 1000 µM in assay [2] (setting [10]) turned out to be 64.8 ± 9.4%; in assay [2] (setting [11]), 36 ± 12.5%. The activity at 100 µM in assay [2] (setting [7]) was 101 ± 2.1%; in assay [2] (setting [8]), 86.3 ± 10.9%. Moreover, in assay [2] (setting [9]), the activity at 10 µM amounted to 101 ± 3.5%.

With `CCC(C)N(C)C(=O)c1cc2ccccc2c(-c2ccccc2Cl)n1` (stereo not drawn) [PK 11195, 1-(2-chlorophenyl)-N-methyl-N-(1-methylpropyl)-3-isoquinolinecarboxamide], in assay [3] (0.1 mg/kg s.c. daily to day 14), the “Severity of Disease Sign Total” value is reported as 1.40 ± 0.48, the “Severity of Disease Sign (1) subsynovial inflammation” value worked out at 0.70 ± 0.26, the “Severity of Disease Sign (2) synovial hyperplasia” value is recorded as 0.70 ± 0.26 and the “Severity of Disease Sign (3) pannus formation” value (from here on “Severity … (3) pannus formation”) is reported as 0.00 ± 0.00. The “Severity of Disease Sign (4) bone destruction” value (“Severity … (4) bone destruction” below) in assay [3] (0.1 mg/kg s.c. daily to day 14) was 0.00 ± 0.00. In addition, in assay [3] (0.5 mg/kg s.c. daily to day 14), the “Severity of Disease Sign Total” value is listed as 1.25 ± 0.53, the “Severity of Disease Sign (1) subsynovial inflammation” value was determined as 0.62 ± 0.26, the “Severity of Disease Sign (2) synovial hyperplasia” value was determined as 0.50 ± 0.27 and the “Severity … (3) pannus formation” value was determined as 0.00 ± 0.00. In assay [3] (0.5 mg/kg s.c. daily to day 14), the “Severity … (4) bone destruction” value is reported as 0.12 ± 0.12. Also, in assay [3] (1 mg/kg s.c. daily to day 14), the “Severity of Disease Sign Total” value was found to be 1.14 ± 0.14, the “Severity of Disease Sign (1) subsynovial inflammation” value is recorded as 0.43 ± 0.20, the “Severity of Disease Sign (2) synovial hyperplasia” value worked out at 0.71 ± 0.18 and the “Severity … (3) pannus formation” value was 0.00 ± 0.00. Moreover, the “Severity … (4) bone destruction” value in assay [3] (1 mg/kg s.c. daily to day 14) was 0.00 ± 0.00. In addition, in assay [3] (even at the lowest dose of 0.1 mg/kg), the “reduction of the total histopathological score observed in control mice” value is recorded as “more than 70%”. The “efficacy compared with results of Ratkay et al., 1994” value in assay [3] (lowest dose 0.1 mg/kg) was “more effective than ten times that dose of indomethacin, forty times that dose of cyclosporin”. Further, in assay [2] (setting [12]), the activity at 1 µM worked out at 97.9 ± 0.2%, the activity at 10 µM is 83.5 ± 8.7% and the activity at 100 µM came out at 47.1 ± 13.6%. Moreover, in assay [2] (setting [13]), the activity at 1 µM was determined as 99 ± 5.6%, the activity at 10 µM was found to be 87.9 ± 5.5% and the activity at 100 µM was 48.9 ± 10.8%. For the same compound, the inhibition at 100 µM in assay [2] (read-out: inhibition of respiratory burst) is over 50%. Further, in assay [4] (Alzheimer), the “Specific High Affinity Binding, Alzheimer cortical tissue, Means ± S.E.” value is 449 ± 25 fentamoles/mg protein; the “Specific High Affinity Binding, Alzheimer cortical tissue, individual cases” value was 480 fentamoles/mg protein and 585 fentamoles/mg protein and 400 fentamoles/mg protein and 450 fentamoles/mg protein and 395 fentamoles/mg protein and 408 fentamoles/mg protein and 422 fentamoles/mg protein. Besides, in assay [4] (Control), the “Specific High Affinity Binding, Control cortical tissue, Means ± S.E.” value is recorded as 165 ± 25 fentamoles/mg protein; the “Specific High Affinity Binding, Control cortical tissue, individual cases” value is 201 fentamoles/mg protein and 94 fentamoles/mg protein and 265 fentamoles/mg protein and 118 fentamoles/mg protein and 141 fentamoles/mg protein and 111 fentamoles/mg protein and 222 fentamoles/mg protein. The Kd in assay [5] was 5.6 nM.

Consider `C[C@]12C=CC(=O)C=C1CC[C@@H]1[C@@H]2C(=O)C[C@@]2(C)[C@H]1CC[C@]2(O)C(=O)CO` [Prednisone, prednisone], for which the figures for the activity at 1000 µM in assay [2] (setting [10]) and in assay [2] (setting [11]) were 67 ± 11.6% and 62.5 ± 8.1%, respectively. Moreover, the values for the activity at 100 µM in assay [2] (setting [7]) and in assay [2] (setting [8]) were 102 ± 4.9% and 88.8 ± 7.2%, respectively.

`CN1C(=O)CN=C(c2ccc(Cl)cc2)c2cc(Cl)ccc21` [Ro 5-4864, 4'-chlorodiazepam]: in assay [2] (setting [13]), the activity at 1 µM amounted to 94.6 ± 12.2%, the activity at 10 µM came out at 85.4 ± 2.5% and the activity at 100 µM came to 74.7 ± 1.9%. In addition, the Ki in assay [1] is 178 nM. The “high affinity binding to Alzheimer versus neurologically normal brain tissue” value in assay [6] was “greater high affinity binding to Alzheimer brain tissue than to neurologically normal brain tissue”.
